Experimental data reported in patent publication EP0908457B1, “3-(1,2-benzisothiazol- and isoxazol-5-Y1)-2,4(1H,3H)-pyrimidinedione or thione and 3-(1,2-benzisothiazol- and isoxazol-5-y1)-4(3H)-pyrimidinone or thione herbicidal agents” (BASF AKTIENGESELLSCHAFT, priority 1997, dated 1999).

How the values were obtained:
[1] = test system: Echinochloa oryzoides (Ard.) Fritsch.; test: Preemergence weed control under flooded paddy conditions, ECHORC (Watergrass (Calif.)); format: in vivo; settings: flooded paddy; for ECHORC: preemergence weeds, herbicidal effect rating 0-9, three to four weeks after treatment; for ECHORC herbicidal rating: preemergence, rated three to four weeks after treatment
Cyperus iria = test: Preemergence weed control under flooded paddy conditions, CYPIR (Rice Flatsedge); format: in vivo; settings: flooded paddy; for CYPIR: preemergence weeds, herbicidal effect rating 0-9, three to four weeks after treatment; for CYPIR herbicidal rating: preemergence, rated three to four weeks after treatment
[2] = test system: Cyperus serotinus, Rottb.; test: Preemergence weed control under flooded paddy conditions, CYPSE (Flatsedge); format: in vivo; settings: for CYPSE: preemergence weeds, herbicidal effect rating 0-9, three to four weeks after treatment; for CYPSE herbicidal rating: preemergence, rated three to four weeks after treatment
[3] = test system: Monochoria vaginalis, Presl.; test: Preemergence weed control under flooded paddy conditions, MOOVA (Monochoria); format: in vivo; settings: flooded paddy; for MOOVA: preemergence weeds, herbicidal effect rating 0-9, three to four weeks after treatment; for MOOVA herbicidal rating: preemergence, rated three to four weeks after treatment
Sagittaria pygmaea, L. = test: Preemergence weed control under flooded paddy conditions, SAGPY (Arrowhead (Pygmaea)); format: in vivo; settings: flooded paddy; for SAGPY: preemergence weeds, herbicidal effect rating 0-9, three to four weeks after treatment; for SAGPY herbicidal rating: preemergence, rated three to four weeks after treatment
[4] = test system: Oryza sativa, (L.) Tebonnet; test: Rice tolerance to post-transplant applications under flooded paddy conditions (Example 187), ORYSAT (Rice, Tebonnet); settings: for ORYSAT: herbicidal effect rating 0-9, three to four weeks after treatment; for ORYSAT herbicidal rating (rice tolerance): rated three to four weeks after treatment

For Cn1c(C(F)(F)F)cc(=O)n(-c2ccc3snc(COC4CCCCO4)c3c2)c1=O (stereo not shown) [Example 456, 2,4(1H,3H)-Pyrimidinedione, 1-methyl-3-{3-{[(tetrahydro-2H-pyran-2-yl)oxy]methyl}-1,2-benzisothiazol-5-yl}-6-(trifluoromethyl)-], which ECHORC ([1]; 0.0320 kg/ha) is on record?
Its ECHORC is 4.0.

And the ECHORC ([1]; 0.0620 kg/ha)?
The ECHORC was 6.0.

And the ECHORC ([1]; 0.1250 kg/ha)?
The ECHORC was 7.0.

And the ECHORC ([1]; 0.2500 kg/ha)?
Its ECHORC is 9.0.

And the CYPIR (Cyperus iria; 0.0320 kg/ha)?
Its CYPIR is 0.0.

What about the CYPIR (Cyperus iria; 0.0620 kg/ha) of the same compound?
Its CYPIR is 4.0.

What about the CYPIR (Cyperus iria; 0.1250 kg/ha) of the same compound?
The CYPIR was 6.0.

What about the CYPIR (Cyperus iria; 0.2500 kg/ha) of the same compound?
The CYPIR was 6.0.

And the CYPSE ([2]; 0.0320 kg/ha)?
The CYPSE was 0.0.

And the CYPSE ([2]; 0.0620 kg/ha)?
The CYPSE was 0.0.

And the CYPSE ([2]; 0.1250 kg/ha)?
Its CYPSE is 2.0.

And the CYPSE ([2]; 0.2500 kg/ha)?
The CYPSE was 4.0.

What about the MOOVA ([3]; 0.0320 kg/ha) of the same compound?
The MOOVA was 7.0.

What about the MOOVA ([3]; 0.0620 kg/ha) of the same compound?
The MOOVA was 9.0.

And the MOOVA ([3]; 0.1250 kg/ha)?
The MOOVA was 9.0.

And the MOOVA ([3]; 0.2500 kg/ha)?
The MOOVA was 9.0.

And the SAGPY (Sagittaria pygmaea, L.; 0.0320 kg/ha)?
The SAGPY was 0.0.

And the SAGPY (Sagittaria pygmaea, L.; 0.0620 kg/ha)?
The SAGPY was 0.0.

What about the SAGPY (Sagittaria pygmaea, L.; 0.1250 kg/ha) of the same compound?
Its SAGPY is 2.0.

And the SAGPY (Sagittaria pygmaea, L.; 0.2500 kg/ha)?
Its SAGPY is 4.0.

And the ORYSAT ([4]; 0.0320 kg/ha)?
Its ORYSAT is 7.0.

And the ORYSAT ([4]; 0.0620 kg/ha)?
Its ORYSAT is 8.0.

And the ORYSAT ([4]; 0.1250 kg/ha)?
Its ORYSAT is 8.0.

And the ORYSAT ([4]; 0.2500 kg/ha)?
The ORYSAT was 9.0.

For Cc1ccsc1C=C(C#N)c1nsc2ccc(-n3c(=O)cc(C(F)(F)F)n(C)c3=O)cc12 [Example 457, 1,2-Benzisothiazole-3-acetonitrile, 5-[3,6-dihydro-3-methyl-2,6-dioxo-4-(trifluoromethyl)-1(2H)-pyrimidinyl]-alpha-(3-methyl-2-thenylidene)-], which ECHORC ([1]; 0.0320 kg/ha) is on record?
Its ECHORC is 5.0.

And the ECHORC ([1]; 0.0620 kg/ha)?
Its ECHORC is 7.0.

What about the ECHORC ([1]; 0.1250 kg/ha) of the same compound?
Its ECHORC is 9.0.

What about the ECHORC ([1]; 0.2500 kg/ha) of the same compound?
The ECHORC was 9.0.

What about the CYPIR (Cyperus iria; 0.0320 kg/ha) of the same compound?
The CYPIR was 0.0.

What about the CYPIR (Cyperus iria; 0.0620 kg/ha) of the same compound?
Its CYPIR is 3.0.

And the CYPIR (Cyperus iria; 0.1250 kg/ha)?
The CYPIR was 5.0.

What about the CYPIR (Cyperus iria; 0.2500 kg/ha) of the same compound?
Its CYPIR is 7.0.

What about the CYPSE ([2]; 0.0320 kg/ha) of the same compound?
Its CYPSE is 0.0.

What about the CYPSE ([2]; 0.0620 kg/ha) of the same compound?
The CYPSE was 0.0.

What about the CYPSE ([2]; 0.1250 kg/ha) of the same compound?
The CYPSE was 0.0.

And the CYPSE ([2]; 0.2500 kg/ha)?
Its CYPSE is 0.0.

What about the MOOVA ([3]; 0.0320 kg/ha) of the same compound?
The MOOVA was 2.0.

What about the MOOVA ([3]; 0.0620 kg/ha) of the same compound?
Its MOOVA is 4.0.

And the MOOVA ([3]; 0.1250 kg/ha)?
The MOOVA was 7.0.

And the MOOVA ([3]; 0.2500 kg/ha)?
Its MOOVA is 7.0.

What about the SAGPY (Sagittaria pygmaea, L.; 0.0320 kg/ha) of the same compound?
Its SAGPY is 0.0.

What about the SAGPY (Sagittaria pygmaea, L.; 0.0620 kg/ha) of the same compound?
Its SAGPY is 0.0.

What about the SAGPY (Sagittaria pygmaea, L.; 0.1250 kg/ha) of the same compound?
Its SAGPY is 3.0.

And the SAGPY (Sagittaria pygmaea, L.; 0.2500 kg/ha)?
Its SAGPY is 3.0.

What about the ORYSAT ([4]; 0.0320 kg/ha) of the same compound?
Its ORYSAT is 0.0.

And the ORYSAT ([4]; 0.0620 kg/ha)?
The ORYSAT was 0.0.

And the ORYSAT ([4]; 0.1250 kg/ha)?
The ORYSAT was 0.0.

What about the ORYSAT ([4]; 0.2500 kg/ha) of the same compound?
The ORYSAT was 3.0.

COC(=O)COc1ccc(I)cc1-c1nsc2ccc(-n3c(=O)cc(C(F)(F)F)n(C)c3=O)cc12 [Example 459, Acetic acid, {2-{5-[3,6-dihydro-3-methyl-2,6-dioxo-4-(trifluoromethyl)-1(2H)-pyrimidinyl]-1,2-benzisothiazol-3-yl}-4-iodophenoxy}-, methyl ester] was tested. Which ECHORC herbicidal rating ([1]; 0.0320 kg/ha) did it give?
Its ECHORC herbicidal rating is 7.0.

What about the ECHORC ([1]; 0.0620 kg/ha) of the same compound?
The ECHORC was 7.0.

What about the ECHORC ([1]; 0.1250 kg/ha) of the same compound?
The ECHORC was 9.0.

And the ECHORC ([1]; 0.2500 kg/ha)?
Its ECHORC is 9.0.

And the CYPIR herbicidal rating (Cyperus iria; 0.0320 kg/ha)?
The CYPIR herbicidal rating was 0.0.

What about the CYPIR (Cyperus iria; 0.0620 kg/ha) of the same compound?
Its CYPIR is 2.0.

What about the CYPIR (Cyperus iria; 0.1250 kg/ha) of the same compound?
The CYPIR was 4.0.

And the CYPIR (Cyperus iria; 0.2500 kg/ha)?
The CYPIR was 4.0.

And the CYPSE herbicidal rating ([2]; 0.0320 kg/ha)?
The CYPSE herbicidal rating was 0.0.

And the CYPSE ([2]; 0.0620 kg/ha)?
Its CYPSE is 0.0.

And the CYPSE ([2]; 0.1250 kg/ha)?
Its CYPSE is 0.0.

What about the CYPSE ([2]; 0.2500 kg/ha) of the same compound?
Its CYPSE is 3.0.

And the MOOVA herbicidal rating ([3]; 0.0320 kg/ha)?
The MOOVA herbicidal rating was 3.0.

What about the MOOVA ([3]; 0.0620 kg/ha) of the same compound?
The MOOVA was 5.0.

And the MOOVA ([3]; 0.1250 kg/ha)?
Its MOOVA is 7.0.

What about the MOOVA ([3]; 0.2500 kg/ha) of the same compound?
Its MOOVA is 7.0.

What about the SAGPY herbicidal rating (Sagittaria pygmaea, L.; 0.0320 kg/ha) of the same compound?
The SAGPY herbicidal rating was 0.0.

What about the SAGPY (Sagittaria pygmaea, L.; 0.0620 kg/ha) of the same compound?
The SAGPY was 0.0.

What about the SAGPY (Sagittaria pygmaea, L.; 0.1250 kg/ha) of the same compound?
The SAGPY was 0.0.

And the SAGPY (Sagittaria pygmaea, L.; 0.2500 kg/ha)?
The SAGPY was 0.0.

And the “ORYSAT herbicidal rating (rice tolerance)” value (“ORYSAT herbicidal rating” for short) ([4]; 0.0320 kg/ha)?
Its value is 2.0.

And the ORYSAT ([4]; 0.0620 kg/ha)?
Its ORYSAT is 4.0.

And the ORYSAT ([4]; 0.1250 kg/ha)?
The ORYSAT was 5.0.

What about the ORYSAT ([4]; 0.2500 kg/ha) of the same compound?
Its ORYSAT is 5.0.

For COC(=O)C(C)Oc1ccc(I)cc1-c1nsc2ccc(-n3c(=O)cc(C(F)(F)F)n(C)c3=O)cc12 (stereo not shown) [Example 460, Propionic acid, 2-{2-{5-[3,6-dihydro-3-methyl-2,6-dioxo-4-(trifluoromethyl)-1(2H)-pyrimidinyl]-1,2-benzisothiazol-3-yl}-4-iodophenoxy}-, methyl ester], which ECHORC herbicidal rating ([1]; 0.0320 kg/ha) is on record?
Its ECHORC herbicidal rating is 6.0.

And the ECHORC herbicidal rating ([1]; 0.0620 kg/ha)?
Its ECHORC herbicidal rating is 7.0.

And the ECHORC herbicidal rating ([1]; 0.1250 kg/ha)?
The ECHORC herbicidal rating was 9.0.

And the ECHORC herbicidal rating ([1]; 0.2500 kg/ha)?
The ECHORC herbicidal rating was 9.0.

What about the CYPIR herbicidal rating (Cyperus iria; 0.0320 kg/ha) of the same compound?
Its CYPIR herbicidal rating is 0.0.

And the CYPIR herbicidal rating (Cyperus iria; 0.0620 kg/ha)?
The CYPIR herbicidal rating was 2.0.

And the CYPIR herbicidal rating (Cyperus iria; 0.1250 kg/ha)?
Its CYPIR herbicidal rating is 3.0.

What about the CYPIR herbicidal rating (Cyperus iria; 0.2500 kg/ha) of the same compound?
The CYPIR herbicidal rating was 3.0.

What about the CYPSE herbicidal rating ([2]; 0.1250 kg/ha) of the same compound?
The CYPSE herbicidal rating was 0.0.

What about the CYPSE herbicidal rating ([2]; 0.2500 kg/ha) of the same compound?
The CYPSE herbicidal rating was 0.0.

And the MOOVA herbicidal rating ([3]; 0.0320 kg/ha)?
The MOOVA herbicidal rating was 3.0.

What about the MOOVA herbicidal rating ([3]; 0.0620 kg/ha) of the same compound?
Its MOOVA herbicidal rating is 4.0.

And the MOOVA herbicidal rating ([3]; 0.1250 kg/ha)?
Its MOOVA herbicidal rating is 4.0.

What about the MOOVA herbicidal rating ([3]; 0.2500 kg/ha) of the same compound?
Its MOOVA herbicidal rating is 4.0.

What about the SAGPY herbicidal rating (Sagittaria pygmaea, L.; 0.0320 kg/ha) of the same compound?
The SAGPY herbicidal rating was 0.0.

What about the SAGPY herbicidal rating (Sagittaria pygmaea, L.; 0.0620 kg/ha) of the same compound?
Its SAGPY herbicidal rating is 0.0.

And the SAGPY herbicidal rating (Sagittaria pygmaea, L.; 0.1250 kg/ha)?
Its SAGPY herbicidal rating is 3.0.

What about the SAGPY herbicidal rating (Sagittaria pygmaea, L.; 0.2500 kg/ha) of the same compound?
The SAGPY herbicidal rating was 3.0.

What about the “ORYSAT herbicidal rating” value ([4]; 0.0320 kg/ha) of the same compound?
The value was 4.0.

And the “ORYSAT herbicidal rating” value ([4]; 0.0620 kg/ha)?
Its value is 4.0.

What about the “ORYSAT herbicidal rating” value ([4]; 0.1250 kg/ha) of the same compound?
The value was 4.0.

What about the “ORYSAT herbicidal rating” value ([4]; 0.2500 kg/ha) of the same compound?
The value was 5.0.
